Laboratory results taken from US20230295234A1, “ANTIMICROBIAL PEPTIDOMIMETICS” (SPEXIS AG, priority 2020, published 2023).
Bridge positions count the residues as written; N and C are the ends. Square brackets hold non-standard residues; d marks the D form. Peptide text beside a SMILES is read from it. Pro(4R-NH2) = N[C@H]1CN[C@H](C(=O)O)C1; Gly(N-2-aminoethyl) = NCCNCC(=O)O; Pen = CC(C)(S)[C@H](N)C(=O)O; dDab = NCC[C@@H](N)C(=O)O; Nle = CCCC[C@H](N)C(=O)O; Dab = NCC[C@H](N)C(=O)O

How the values were obtained:
[1] = tested on: human red blood cells (hRBC); experiment: Hemolysis of human red blood cells; type: cell-based; conditions: red cells of human, 1 h
Protocol: Lyophilized peptides were weighed on a Microbalance (Mettler MT5) and dissolved in sterile water to a final concentration of 1 mg/mL. Stock solutions were kept at +4° C., light protected. The peptides were tested for their hemolytic activity against human red blood cells (hRBC). Fresh hRBC were washed three times with phosphate buffered saline (PBS) and centrifuged for 5 min at 3000×g. Compounds (200 μg/mL) were incubated with 20% hRBC (v/v) for 1 h at 37° C. and shaking at 300 rpm. […] The samples were centrifuged, the supernatants were 8-fold diluted in PBS buffer and the optical densities (OD) were measured at 540 nm. […] Percent hemolysis was calculated as follows: (OD540peptide/OD540H2O)×100%.

[2] = tested on: Escherichia coli MCR-1 Af 45; conditions: MCR-1 Af 45
Protocol: (§1) Lyophilized peptides were weighed on a Microbalance (Mettler MT5) and dissolved in sterile water to a final concentration of 1 mg/mL. Stock solutions were kept at +4° C., light protected.
(§2) Colonies of the microorganisms were diluted in saline (0.85%, NaCl) and adjusted using a McFarland reader (bioMérieux SA, Marcy-l'Etoile, France) to 0.5 McFarland standard. Subsequently, the bacterial suspension was diluted in Mueller-Hinton II (MHII, cation adjusted) broth to give approximately 5×10^5 colony forming units (CFU/mL).
(§3) 10^6 colony forming units (CFU)/mL. Aliquots (90 μl) of inoculate were added to 10 μl of water+P-80 (Polysorbate 80, 0.002% final concentration) containing the peptide in serial two-fold dilutions at 10 fold final concentration. The following microorganisms were used to determine antibiotic selectivity of the peptides: Escherichia coli ATCC 25922, Escherichia coli MCR-1 Af 45 and Klebsiella pneumoniae SSI3010.

[3] = tested on: Escherichia coli ATCC 25922; conditions: ATCC 25922
Protocol: as §1, §2, §3

[4] = tested on: Klebsiella pneumoniae SSI3010; conditions: SSI3010
Protocol: as §1, §2, §3

SMILES | Hemolysis at 0.2 g/L [1] [%] | Escherichia coli MCR-1 Af 45 MIC [2] [mg/L] | Escherichia coli ATCC 25922 MIC [3] [mg/L] | Klebsiella pneumoniae SSI3010 MIC [4] [mg/L]
CCCC[C@H](NC(=O)[C@H](CCCNC(=N)N)NC(=O)[C@H](CCN)NC(=O)[C@@H]1CSSC(C)(C)[C@H](NC(=O)[C@H](Cc2ccc(O)cc2)NC(=O)[C@@H](NC(=O)[C@@H](NC(=O)[C@@H]2C[C@@H](N)CN2C(=O)[C@@H](NC(=O)[C@@H]2CCCN2)C(C)C)[C@@H](C)CC)[C@@H](C)CC)C(=O)N[C@@H](CC(N)=O)C(=O)N[C@@H](CCCNC(=N)N)C(=O)N[C@@H](CCN)C(=O)N[C@@H]([C@@H](C)O)C(=O)N[C@H](CCN)C(=O)N[C@@H](CCCCN)C(=O)N1)C(=O)O [Example 5, Pro-Val-Pro((4R)NH2)-Ile-Ile-Tyr-Pen-Asn-Arg-Dab-Thr-^DDab-Lys-Cys-Dab-Arg-Nle] (HELM PEPTIDE1{P.V.[N[C@@H]1C[C@@H](C(=O)[*:2])N([*:1])C1].I.I.Y.[Pen].N.R.[Dab].T.[NCC[C@@H](N[*:1])C(=O)[*:2]].K.C.[Dab].R.[Nle]}$PEPTIDE1,PEPTIDE1,7:R3-14:R3$$$V2.0) | 0 | 0.0625 | 0.0625 | 0.25
CCCC[C@H](NC(=O)[C@H](CCCNC(=N)N)NC(=O)[C@H](CCN)NC(=O)[C@@H]1CSSC(C)(C)[C@H](NC(=O)[C@H](Cc2ccc(O)cc2)NC(=O)[C@@H](NC(=O)[C@@H](NC(=O)[C@@H]2CCCN2C(=O)[C@@H](NC(=O)CNCCN)C(C)C)[C@@H](C)CC)[C@@H](C)CC)C(=O)N[C@@H](CC(N)=O)C(=O)N[C@@H](CCCNC(=N)N)C(=O)N[C@@H](CCN)C(=O)N[C@@H]([C@@H](C)O)C(=O)N[C@H](CCN)C(=O)N[C@@H](CCCCN)C(=O)N1)C(=O)O [Example 6, Ndab-Val-Pro-Ile-Ile-Tyr-Pen-Asn-Arg-Dab-Thr-^DDab-Lys-Cys-Dab-Arg-Nle] (HELM PEPTIDE1{[NCCNCC(=O)[*:2]].V.P.I.I.Y.[Pen].N.R.[Dab].T.[NCC[C@@H](N[*:1])C(=O)[*:2]].K.C.[Dab].R.[Nle]}$PEPTIDE1,PEPTIDE1,7:R3-14:R3$$$V2.0) | 0 | 0.125 | 0.125 | 0.25
CCCC[C@H](NC(=O)[C@H](CCCNC(=N)N)NC(=O)[C@H](CCN)NC(=O)[C@@H]1CSSC(C)(C)[C@H](NC(=O)[C@H](Cc2ccc(O)cc2)NC(=O)[C@@H](NC(=O)[C@@H](NC(=O)CN(CCN)C(=O)[C@@H](NC(=O)[C@@H]2CCCN2)C(C)C)[C@@H](C)CC)[C@@H](C)CC)C(=O)N[C@@H](CC(N)=O)C(=O)N[C@@H](CCCNC(=N)N)C(=O)N[C@@H](CCN)C(=O)N[C@@H]([C@@H](C)O)C(=O)N[C@H](CCN)C(=O)N[C@@H](CCCCN)C(=O)N1)C(=O)O [Example 7, Pro-Val-Ndab-Ile-Ile-Tyr-Pen-Asn-Arg-Dab-Thr-^DDab-Lys-Cys-Dab-Arg-Nle] (HELM PEPTIDE1{P.V.[NCCN(CC(=O)[*:2])[*:1]].I.I.Y.[Pen].N.R.[Dab].T.[NCC[C@@H](N[*:1])C(=O)[*:2]].K.C.[Dab].R.[Nle]}$PEPTIDE1,PEPTIDE1,7:R3-14:R3$$$V2.0) | 0 | 0.25 | 0.125 | 0.25
CCCC[C@H](NC(=O)[C@H](CCCNC(=N)N)NC(=O)[C@H](CCN)NC(=O)[C@@H]1CSSC(C)(C)[C@H](NC(=O)[C@H](Cc2ccc(O)cc2)NC(=O)[C@@H](NC(=O)[C@@H](NC(=O)[C@@H]2C[C@@H](N)CN2C(=O)[C@@H](NC(=O)[C@@H]2C[C@@H](N)CN2)C(C)C)[C@@H](C)CC)[C@@H](C)CC)C(=O)N[C@@H](CC(N)=O)C(=O)N[C@@H](CCCNC(=N)N)C(=O)N[C@@H](CCN)C(=O)N[C@@H]([C@@H](C)O)C(=O)N[C@H](CCN)C(=O)N[C@@H](CCCCN)C(=O)N1)C(=O)O [Example 8, Pro((4R)NH2)-Val-Pro((4R)NH2)-Ile-Ile-Tyr-Pen-Asn-Arg-Dab-Thr-^DDab-Lys-Cys-Dab-Arg-Nle] (H-[Pro(4R-NH2)]V[Pro(4R-NH2)]IIY[Pen]NR[Dab]T[dDab]KC[Dab]R[Nle]-OH; disulfide 7-14) | 0 | 0.0625 | 0.0625 | 0.125
CCCC[C@H](NC(=O)[C@H](CCCNC(=N)N)NC(=O)[C@H](CCN)NC(=O)[C@@H]1CSSC(C)(C)[C@H](NC(=O)[C@H](Cc2ccc(O)cc2)NC(=O)[C@@H](NC(=O)[C@@H](NC(=O)[C@@H]2C[C@@H](N)CN2C(=O)[C@@H](NC(=O)[C@@H]2C[C@@H](N)CN2)C(C)C)[C@@H](C)CC)[C@@H](C)O)C(=O)N[C@@H](CC(N)=O)C(=O)N[C@@H](CCCNC(=N)N)C(=O)N[C@@H](CCN)C(=O)N[C@@H]([C@@H](C)O)C(=O)N[C@H](CCN)C(=O)N[C@@H](CCCCN)C(=O)N1)C(=O)O [Example 9, Pro((4R)NH2)-Val-Pro((4R)NH2)-Ile-Thr-Tyr-Pen-Asn-Arg-Dab-Thr-^DDab-Lys-Cys-Dab-Arg-Nle] (H-[Pro(4R-NH2)]V[Pro(4R-NH2)]ITY[Pen]NR[Dab]T[dDab]KC[Dab]R[Nle]-OH; disulfide 7-14) | 0 | 0.0625 | 0.0625 | 0.125
CCCC[C@H](NC(=O)[C@H](CCCNC(=N)N)NC(=O)[C@H](CCN)NC(=O)[C@@H]1CSSC(C)(C)[C@H](NC(=O)[C@H](Cc2ccc(O)cc2)NC(=O)[C@@H](NC(=O)[C@@H](NC(=O)CN(CCN)C(=O)[C@@H](NC(=O)[C@@H]2C[C@@H](N)CN2)C(C)C)[C@@H](C)CC)[C@@H](C)CC)C(=O)N[C@@H](CC(N)=O)C(=O)N[C@@H](CCCNC(=N)N)C(=O)N[C@@H](CCN)C(=O)N[C@@H]([C@@H](C)O)C(=O)N[C@H](CCN)C(=O)N[C@@H](CCCCN)C(=O)N1)C(=O)O [Example 10, Pro((4R)NH2)-Val-Ndab-Ile-Ile-Tyr-Pen-Asn-Arg-Dab-Thr-^DDab-Lys-Cys-Dab-Arg-Nle] (H-[Pro(4R-NH2)]V[Gly(N-2-aminoethyl)]IIY[Pen]NR[Dab]T[dDab]KC[Dab]R[Nle]-OH; disulfide 7-14) | 0 | 0.125 | 0.125 | 0.25
CCCC[C@H](NC(=O)[C@H](CCCNC(=N)N)NC(=O)[C@H](CCN)NC(=O)[C@@H]1CSSC(C)(C)[C@H](NC(=O)[C@H](Cc2ccc(O)cc2)NC(=O)[C@@H](NC(=O)[C@@H](NC(=O)[C@@H]2C[C@@H](N)CN2C(=O)[C@@H](NC(=O)CNCCN)C(C)C)[C@@H](C)CC)[C@@H](C)CC)C(=O)N[C@@H](CC(N)=O)C(=O)N[C@@H](CCCNC(=N)N)C(=O)N[C@@H](CCN)C(=O)N[C@@H]([C@@H](C)O)C(=O)N[C@H](CCN)C(=O)N[C@@H](CCCCN)C(=O)N1)C(=O)O [Example 11, Ndab-Val-Pro((4R)NH2)-Ile-Ile-Tyr-Pen-Asn-Arg-Dab-Thr-^DDab-Lys-Cys-Dab-Arg-Nle] (H-[Gly(N-2-aminoethyl)]V[Pro(4R-NH2)]IIY[Pen]NR[Dab]T[dDab]KC[Dab]R[Nle]-OH; disulfide 7-14) | 0 | ≤0.03125 | 0.0625 | 0.125
CCCC[C@H](NC(=O)[C@H](CCCNC(=N)N)NC(=O)[C@H](CCN)NC(=O)[C@@H]1CSSC(C)(C)[C@H](NC(=O)[C@H](Cc2ccc(O)cc2)NC(=O)[C@@H](NC(=O)[C@@H](NC(=O)CN(CCN)C(=O)[C@@H](NC(=O)CNCCN)C(C)C)[C@@H](C)CC)[C@@H](C)O)C(=O)N[C@@H](CC(N)=O)C(=O)N[C@@H](CCCNC(=N)N)C(=O)N[C@@H](CCN)C(=O)N[C@@H]([C@@H](C)O)C(=O)N[C@H](CCN)C(=O)N[C@@H](CCCCN)C(=O)N1)C(=O)O [Example 12, Ndab-Val-Ndab-Ile-Thr-Tyr-Pen-Asn-Arg-Dab-Thr-^DDab-Lys-Cys-Dab-Arg-Nle] (H-[Gly(N-2-aminoethyl)]V[Gly(N-2-aminoethyl)]ITY[Pen]NR[Dab]T[dDab]KC[Dab]R[Nle]-OH; disulfide 7-14) | 0 | 0.0625 | 0.25 | 0.25
